The record followed here is patent US8598223B2, “Crystalline forms of 4, 4′-[4-fluoro-7-({4-[4-(3-fluoro-2-methylphenyl) butoxy] phenyl} ethynyl)-2-methyl-1H-indole-1,3-diyl] dibutanoic acid, 4,4′-[2-methyl-7-({4-[4-(pentafluorophenyl) butoxy] phenyl} ethynyl)-1H-indole-1, 3-diyl] dibutanoic acid, and 4,4′-[4-fluoro-2-methyl-7-({4-[4-(2, 3, 4, …” (Ono Pharmaceutical Co., Ltd., priority 2010, dated 2013).

Read-outs that look alike come from different tables or passages of the source.

For series [1], the system named is LTD4-induced bronchoconstriction in guinea pigs. In words: LTD4-induced bronchoconstriction in guinea pigs (Konzett-Rossler method). It counts as in vivo, guinea pig. As to conditions: oral, 1 mg/kg. The protocol: Guinea pigs were anesthetized by injection of pentobarbital sodium (75 mg/kg, i.p.), and a polyethylene cannula was inserted into the trachea which had been incised. For the purpose of administration of LTD4, a catheter was inserted into the jugular vein of the animal. One side of the cannula inserted into the trachea was connected with a volume-controlled respirator to perform artificial respiration at a ventilation volume of 5 mL and at a ventilation rate of 70 times/min. LTD4 was administrated intravenously to induce the bronchoconstriction, and the airway resistance was measured using the Konzett-Rossler method. The bronchoconstriction response was measured for 10 minutes after LTD4-challenge, and the ratio of bronchoconstriction response was determined and represented as a percentage of the maximal increase in insufflation pressure achieved by clamping off the trachea. In this connection, the crystalline forms of the present invention were orally administered 1, 2, 4, 8, 12, 18, 24, 36 and 48 hours prior to challenge by LTD4.

Series [2] in a line: Photostability test (D65 lamp). It counts as physicochemical. Particulars: not less than 1.2 million lux hours and 200 W·h/m^2, 25° C.±2° C., visual check. The procedure:
Each crystalline form of compound I, compound II, and compound III were weighed about 5 mg, and were exposed to light from D65 lamp providing an overall illumination of not less than 1.2 million lux hours and an integrated near ultraviolet energy of not less than 200 W·h/m^2 under 25° C.±2° C.

Series [3] is described as follows: Thermodynamical stability test by differential scanning calorimetry (DSC). It counts as physicochemical. The protocol: The thermodynamical stability of each crystalline form of compound I, compound II, and compound III was analyzed by differential scanning calorimetry (DSC). As a result, it was apparent that the crystalline forms of the present invention are ones which have improved thermodynamical stability.

The mark [4] stands for this setting: administered 2 hours prior to LTD4 challenge.
The mark [5] stands for this setting: administered 24 hours prior to LTD4 challenge.

For `Cc1c(F)cccc1CCCCOc1ccc(/C=C/c2ccc(F)c3c(CCCC(=O)O)c(C)n(CCCC(=O)O)c23)cc1` [Comparative Example 4, 4,4′-{4-fluoro-7-[(E)-2-{4-[4-(3-fluoro-2-methylphenyl)butoxy]phenyl}vinyl]-2-methyl-1H-indole-1,3-diyl}dibutanoic acid], the bronchoconstriction inhibition ratio in series [1] (setting [4]) is 97.5%; in series [1] (setting [5]), 43.2%.

For the compound `Cc1c(CCCC(=O)O)c2cccc(/C=C/c3ccc(OCCCCc4c(F)c(F)c(F)c(F)c4F)cc3)c2n1CCCC(=O)O` [Comparative Example 5, 4,4′-{2-methyl-7-[(E)-2-{4-[4-(pentafluorophenyl)butoxy]phenyl}vinyl]-1H-indole-1,3-diyl}dibutanoic acid], the bronchoconstriction inhibition ratio in series [1] (setting [4]) is 98.6%; in series [1] (setting [5]), 74.1%.

Regarding `Cc1c(CCCC(=O)O)c2c(F)ccc(/C=C/c3ccc(OCCCCc4c(F)cc(F)c(F)c4F)cc3)c2n1CCCC(=O)O` [Comparative Example 6, 4,4′-{4-fluoro-2-methyl-7-[(E)-2-{4-[4-(2,3,4,6-tetrafluorophenyl)butoxy]phenyl}vinyl]-1H-indole-1,3-diyl}dibutanoic acid], the values for the bronchoconstriction inhibition ratio in series [1] (setting [4]) and in series [1] (setting [5]) were 53.2% and 16.1%, respectively.

As to `Cc1c(F)cccc1CCCCOc1ccc(C#Cc2ccc(F)c3c(CCCC(=O)O)c(C)n(CCCC(=O)O)c23)cc1` [Example 12, 4,4′-[4-fluoro-7-({4-[4-(3-fluoro-2-methylphenyl)butoxy]phenyl}ethynyl)-2-methyl-1H-indole-1,3-diyl]dibutanoic acid], the “photostability of the crystalline form” value in series [2] is recorded as “photostable”. The “thermodynamical stability of the crystalline form” value (shortened to “thermodynamical stability”) in series [3] is listed as “the most thermodynamically stable crystalline form”. In series [3] (listed as type C crystal of compound I), this compound showed a fusion enthalpy of 105.6 J/g.

On to `Cc1c(CCCC(=O)O)c2cccc(C#Cc3ccc(OCCCCc4c(F)c(F)c(F)c(F)c4F)cc3)c2n1CCCC(=O)O` [Example 14, 4,4′-[2-methyl-7-({4-[4-(pentafluorophenyl)butoxy]phenyl}ethynyl)-1H-indole-1,3-diyl]dibutanoic acid], for which the “photostability of the crystalline form” value in series [2] is reported as “more photostable than type A crystal”. For the same compound, in series [3], the “thermodynamical stability” value was “thermodynamically stable”. In addition, the results for the bronchoconstriction inhibition ratio in series [1] (setting [4]) and in series [1] (setting [5]) were 98.5% and 99.2%, respectively.

For `Cc1c(CCCC(=O)O)c2c(F)ccc(C#Cc3ccc(OCCCCc4c(F)cc(F)c(F)c4F)cc3)c2n1CCCC(=O)O` [Example 16, 4,4′-[4-fluoro-2-methyl-7-({4-[4-(2,3,4,6-tetrafluorophenyl)butoxy]phenyl}ethynyl)-1H-indole-1,3-diyl]dibutanoic acid], the “photostability of the crystalline form” value in series [2] is “photostable”. Also, the “thermodynamical stability” value in series [3] is “thermodynamically stable”.

For `Cc1c(F)cccc1CCCCOc1ccc(C#Cc2ccc(F)c3c(CCCC(=O)O)c(C)n(CCCC(=O)O)c23)cc1` [type A crystal of compound I, 4,4′-[4-fluoro-7-({4-[4-(3-fluoro-2-methylphenyl)butoxy]phenyl}ethynyl)-2-methyl-1H-indole-1,3-diyl]dibutanoic acid], the fusion enthalpy in series [3] came to 96.3 J/g.

Consider `Cc1c(CCCC(=O)O)c2cccc(C#Cc3ccc(OCCCCc4c(F)c(F)c(F)c(F)c4F)cc3)c2n1CCCC(=O)O` [type A crystal of compound II, 4,4′-[2-methyl-7-({4-[4-(pentafluorophenyl)butoxy]phenyl}ethynyl)-1H-indole-1,3-diyl]dibutanoic acid], for which, in series [2] (type A versus type B crystal), the “degree of change in color to yellow after test as compared to before test” value was “bigger”.

For the compound `Cc1c(F)cccc1CCCCOc1ccc(C#Cc2ccc(F)c3c(CCCC(=O)O)c(C)n(CCCC(=O)O)c23)cc1` [type B crystal of compound I, 4,4′-[4-fluoro-7-({4-[4-(3-fluoro-2-methylphenyl)butoxy]phenyl}ethynyl)-2-methyl-1H-indole-1,3-diyl]dibutanoic acid], the fusion enthalpy in series [3] was determined as 57.2 J/g.
